The values below are quoted from earlier work in US20170079478A1, “NITROUS OXIDE MIXTURES AND METHODS OF USE” (KORVATA INC., priority 2014, published 2017).

Like-named read-outs stand apart in the source and are kept apart here.

For data set [1] the following is noted: compared with nitrogen standardized to 1.0.

For the compound `[Ar]` [Ar, argon], the lipid solubility reads like this: (0° C. and 15 psi) 0.30 mg/mL; (20° C. and 15 psi) 0.25 mg/mL. For the same compound, the “RNP (Relative Narcotic Potency)” value in data set [1] is recorded as 2.3.

Turning to `[N-]=[N+]=O` [Example N2O, nitrous oxide], the “RNP (Relative Narcotic Potency)” value in data set [1] was 39.

For `[He]` [He, helium], the “RNP (Relative Narcotic Potency)” value in data set [1] is recorded as 0.045.

For `[Kr]` [Kr, krypton], the “RNP (Relative Narcotic Potency)” value in data set [1] is 7.1.

For `[Ne]` [Ne, neon], the “RNP (Relative Narcotic Potency)” value in data set [1] was 0.3.

With `[Xe]` [Xe, xenon], the “RNP (Relative Narcotic Potency)” value in data set [1] is listed as 25.6.
